Structures are written as SMILES.

In ChEMBL document CHEMBL1140769, “Characterization of distamycin A binding to damaged DNA” (Bioorg Med Chem, 2008) one finds Kd data, which are given here for 1 molecule.

Experiment [1] is described as follows: Binding affinity to AP.A-20 DNA duplex by CD titration.
Experiment [2] can be described thus: Binding affinity to MG.C-20 DNA duplex by CD titration.
Experiment [3] in a line: Binding affinity to G.A-20 DNA duplex by CD titration.
A short description of experiment [4]: Binding affinity to OG.A-20 DNA duplex by CD titration.
The nature of experiment [5]: Binding affinity to T.A-20 DNA duplex by CD titration.

As a reminder, the Kd is the equilibrium constant for the complex coming apart. A higher Kd goes with weaker binding. In the case of `Cn1cc(NC(=O)c2cc(NC(=O)c3cc(NC=O)cn3C)cn2C)cc1C(=O)NCCC(=N)N` [STALLIMYCIN], the Kd in experiment [1] stood at 2000 nM; in experiment [2], 7600 nM; in experiment [3], 3700 nM; in experiment [4] it was 200 nM; in experiment [5] it was 370 nM.
